Results on twelve compounds are retold here after PubChem BioAssay (NCI).

Where “and” joins values, the source holds several entries; their conditions need not be identical. Identical values can stand only once.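 Following 48 hours of exposure in 96-well plates, responses at five concentrations were used to interpolate endpoints linearly. GI50 = concentration required for 50% inhibition of growth. TGI: total growth inhibition.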

Holding throughout (assay): NCI anticancer screen, dose series, 48 h
In test [1] the test system is HL-60(TB) leukemia.
Test [2] relates to SF-539 CNS.
In test [3] the test system is A498 renal.
The test system of test [4] is SK-MEL-2 melanoma.
Test [5] has as its system SF-295 CNS.
Test [6] has as its system RPMI-8226 leukemia.
The subject of test [7] is NCI-H522 lung.
Test [8] concerns A549 NSCLC.
Test [9] deals with HCT-15 colon.
For test [10], the system named is SNB-75 CNS.

For the compound `Fc1ccc(Nc2ccnc(N3CCN(c4ccnc5cc(Cl)ccc45)CC3)n2)cc1`, the GI50 in [1] is 2.59 µM; in [2] it was 2.95 µM; in test [3], 1.81 µM; in test [4], 2.16 µM; in [5], 1.33 µM; in test [6] it was 2.19 µM. Moreover, the GI50 in test [7] is 2.03 µM; in test [8] it was 2.66 µM; in test [9], 2.3 µM; in test [10], 2.43 µM. Further, the TGI in [1] stood at 6.44 µM; in test [2] it was 10.3 µM; in test [3], 9.61 µM; in test [4], 4.07 µM; in [5] it was 3.2 µM; in test [6], 6.22 µM. Also, the TGI in test [7] was 5.38 µM; in [8], over 100 µM; in test [9], 7.93 µM; in test [10], over 100 µM.
In the case of `O=S(=O)(O)c1ccc([Se][Se]c2ccc(S(=O)(=O)O)cc2)cc1`, the TGI in [1], in test [2], in test [3], in [4], in test [5] and in [6] was over 100 µM throughout. The TGI in test [7], in [8], in [9] and in [10] was over 100 µM each time.
Consider `C[C@H]1O[C@@H](O[C@H]2[C@@H](O)C[C@H](O[C@H]3[C@@H](O)C[C@H](O[C@H]4CC[C@]5(C)C6CC[C@]7(C)[C@@H](C8=CC(=O)OC8)CC[C@]7(O)C6CC[C@@H]5C4)O[C@@H]3C)O[C@@H]2C)C[C@H](O)[C@@H]1O` (stereo partly drawn), for which the GI50 in [1] is 0.0114 µM; in test [2], 0.0141 µM; in test [3], 0.0351 µM; in test [4], 0.0192 µM; in test [5], 0.014 µM; in test [6] it was 0.0194 µM. Also, the GI50 was 0.00776 µM in test [8], 0.0257 µM in test [9] and 0.0182 µM in test [10]. Further, the TGI was 0.0261 µM in test [1]; 0.0373 µM in [2]; 0.262 µM in [3]; 0.0675 µM in test [4]; 0.0545 µM in [5]; 0.135 µM in test [6]. Moreover, the TGI in test [7] was 0.0319 µM; in test [8], 0.0155 µM; in [9], 0.0982 µM; in test [10], 0.102 µM.
Turning to `COc1cc(-c2cc(-c3ccc(Nc4nc(Nc5ccc(Cl)cc5)nc(Nc5ccc(Cl)cc5)n4)cc3)no2)cc(OC)c1OC`, the GI50 in test [1] is 2.32 µM; in test [2] it was 9.05 µM; in [3], 2.71 µM; in test [4], 5.04 µM; in test [5], 35.1 µM; in [6], 1.75 µM. The GI50 was 2.89 µM in test [7], 13.5 µM in test [8], 18.9 µM in [9] and 12.7 µM in [10]. Moreover, the TGI in test [1] is 55.5 µM; in [2] it was over 100 µM; in test [3] it was over 100 µM; in test [4], over 100 µM; in [5], over 100 µM; in test [6] it was over 100 µM. Further, the TGI in [7], in test [8], in test [9] and in test [10] was over 100 µM each time.
For `CC(=O)Nc1ccc2c(c1)[nH]c(=O)c1cc(NC(C)=O)ccc12`, the GI50 in test [1] was 26.6 µM; in [2], over 100 µM; in [3] it was over 100 µM; in test [4] it was over 100 µM; in test [5] it was over 100 µM; in test [6], over 100 µM. Besides, the GI50 in [7] is over 100 µM; in test [8] it was over 100 µM; in test [9] it was over 100 µM; in test [10], 41.2 µM. Also, the TGI in test [1], in [2], in [3], in test [4], in test [5] and in test [6] was over 100 µM throughout. Besides, the TGI in [7], in test [8], in [9] and in test [10] was over 100 µM in each case.
On to `CCN(CC(O)COc1ccc2c(c1)[n+]([O-])nc(N)[n+]2[O-])C(C)=O` (stereo not drawn), for which the TGI in test [1], in [2], in test [3], in test [4], in [5] and in [6] was over 100 µM throughout. Also, the TGI in test [7], in test [8], in [9] and in test [10] was over 100 µM throughout.
As to `O=C(Nc1n[nH]c2cc(-c3ccc(F)cc3)ccc12)C1CC1`, the GI50 is 6.69 µM in test [1]; 11.2 µM in test [2]; 12.3 µM in test [3]; 7.16 µM in test [4]; 9.07 µM in [5]; 8.44 µM in test [6]. In addition, the GI50 in [7] is 4.92 µM; in test [8], 10.5 µM; in [9] it was 5.7 µM; in [10], 11.1 µM. In addition, the TGI in test [1] was 22.3 µM; in test [2] it was over 25 µM; in [3] it was over 25 µM; in [4], over 21.9 µM; in [5], 24.6 µM; in [6], over 25 µM. Also, the TGI was over 21.1 µM in test [7], over 25 µM in test [8], over 25 µM in test [9] and over 25 µM in [10].
For `CC1(/C=C/c2ccc(-c3ccccc3)cc2)CCn2cnc3ncnc(c32)N1O` (stereo not drawn), the GI50 in [1] was 0.318 µM; in test [2], 0.388 µM; in [3] it was 0.0387 µM; in [4], 1.42 µM; in test [5] it was 0.419 µM; in [6] it was 0.467 µM. The GI50 was 0.521 µM in test [7], 0.466 µM in test [8], 0.146 µM in test [9] and 0.387 µM in [10]. Further, the TGI in test [1] was 1.81 µM; in [2] it was 5.55 µM; in test [3], 3.99 µM; in test [4], 41.2 µM; in test [5], 17.1 µM; in test [6] it was 22.7 µM. Besides, the TGI in [7] amounted to 34 µM; in [8], 23.5 µM; in [9], 33.5 µM; in [10] it was 14.5 µM.
Regarding `Nc1cc2c3ccccc3ccc2c2ccccc12`, the GI50 is over 68.6 µM in test [1]; over 51.2 µM in test [2]; over 100 µM in test [3]; over 100 µM in test [4]; over 100 µM in [5]; over 45.9 µM in test [6]. The GI50 in test [7] is over 100 µM; in [8] it was 23.9 µM; in test [9], 3.92 µM; in test [10], over 30.5 µM. For the same compound, the TGI in [1], in test [2], in test [3], in test [4], in test [5] and in [6] was over 100 µM throughout. The TGI in test [7], in test [8], in test [9] and in test [10] was over 100 µM in each case.
`Cc1cc(C(=O)NOCCO)c(Nc2ccc(I)cc2F)n(C)c1=O`: the GI50 in test [1] is 0.00173 µM and < 0.01 µM; in [2], over 38.5 µM; in test [3], 0.00323 µM and 0.0103 µM; in test [4], 0.00299 µM and < 0.01 µM; in [5] it was over 100 µM; in test [6], > 10 µM and 37.9 µM. For the same compound, the GI50 in test [7] is > 10 µM and 13.7 µM; in [9], > 3.01 µM and 2.64 µM; in [10], > 10 µM and 17.1 µM. For the same compound, the TGI is over 49.6 µM in test [1]; over 100 µM in test [2]; 0.0286 µM and 0.0435 µM in [3]; over 100 µM in test [5]; over 100 µM in test [6]; over 100 µM in test [7]. For the same compound, the TGI in test [8], in test [9] and in test [10] was over 100 µM in each case.
Take `OC(CBr)C(O)C(O)C(O)CBr` (stereo not drawn): the TGI in test [1] was over 67.5 µM; in [2], over 100 µM; in test [3], over 100 µM; in test [4], over 100 µM; in [5], over 100 µM; in test [6], over 100 µM. For the same compound, the TGI in test [7] was over 100 µM; in test [8], over 100 µM; in test [9], over 100 µM; in [10] it was 68.4 µM and > 100 µM. Further, the GI50 is 23.2 µM and > 72.9 µM in [5]; over 100 µM in test [9]; 13 µM and 51 µM in test [10].
For the compound `COc1ccc(N2CCN(c3nc(-c4ccccn4)nc4sc5c(c34)CCCCCC5)CC2)cc1`, the GI50 in [1] was 4.05 µM; in test [2] it was 66.9 µM; in test [3], 3.3 µM; in test [4], 18.3 µM; in test [6] it was 3.74 µM; in test [7], 18.6 µM. The GI50 in test [8] is 3.25 µM; in test [9] it was 4.26 µM; in test [10], 26.1 µM. Moreover, the TGI in test [1] is 34 µM; in test [2], over 100 µM; in test [3], over 100 µM; in [4] it was over 100 µM; in [6], over 100 µM; in test [7], over 100 µM. Also, the TGI in test [8], in test [9] and in test [10] was over 100 µM throughout.
